Experimental data as given in the OligoGym collection.
These antisense oligonucleotides have a phosphorothioate backbone; sugars and methylation of C are not fully specified.

What was measured:
Settings in all cases: ASO
TERF1 = target: TERF1
RHOB = target: RHOB
PTPN6 = target: PTPN6
XIAP = target: XIAP
Further: test concentration or dose not given here.

| Sequence | remaining target (mRNA or protein) (fraction of control) (TERF1) | remaining target (mRNA or protein) (fraction of control) (PTPN6) | remaining target (mRNA or protein) (fraction of control) (XIAP) | other results |
| --- | --- | --- | --- | --- |
| GACATCAAGATGATCATAGT | ≥ 1 |  |  |  |
| GACATGCTCGTCGCTGCG |  |  |  | remaining target (mRNA or protein) (fraction of control) (RHOB): ≥ 1 |
| GACCCCATGGTCGGGCCAGC |  | ≥ 1 |  |  |
| GAGGACAGCACCGCTCACTT |  | 0.88 |  |  |
| GAGGTTCAGTGAGCTGAAAT | 0.81 |  |  |  |
| GAGTCCGGGCTGTCCACC |  |  |  | remaining target (mRNA or protein) (fraction of control) (RHOB): ≥ 1 |
| GATGAACTTGTACTGCGCCT |  | 0.84 |  |  |
| GATGCAGCCGTTCTGGGA |  |  |  | remaining target (mRNA or protein) (fraction of control) (RHOB): ≥ 1 |
| GATGTCAATGTCACAGTCCA |  | 0.73 |  |  |
| GATGTCTGCAGGTACACAAG |  |  | 0.56 |  |
| GCACGTCTTGCCACACGC |  |  |  | remaining target (mRNA or protein) (fraction of control) (RHOB): ≥ 1 |
| GCAGGGTTCAACAAATTTAC | 0.75 |  |  |  |
| GCATCTCTCTGTAGGGAGGG |  | 0.96 |  |  |
| GCATGACAACTAAAGCACCG |  |  | 0.56 |  |
| GCCACGCCATCTGCCAGAAG |  | 0.7 |  |  |
| GCCAGGTGAGGAAGAACCGC |  | ≥ 1 |  |  |
| GCCATGTTAAATGGCTCGAT | 0.61 |  |  |  |
| GCCATTTTCCATACAAACAG | 0.81 |  |  |  |
| GCCTGGGCCAGCCTTGGGCT |  | ≥ 1 |  |  |
| GCGCCTGAGGCCTCCTCAAT |  | 0.84 |  |  |
| GCTTTTACAAACACAATCAG | 0.73 |  |  |  |
| GGCAGGTTTGTTAGCTGAGT | ≥ 1 |  |  |  |
| GGCCTGGCTGGGCTATATAC |  | ≥ 1 |  |  |

| Sequence | remaining target (mRNA or protein) (fraction of control) (TERF1) | remaining target (mRNA or protein) (fraction of control) (PTPN6) | remaining target (mRNA or protein) (fraction of control) (XIAP) | other results |
| --- | --- | --- | --- | --- |
| GGCTGACTCTTTGAAACAGG | 0.6 |  |  |  |
| GGGACAGCATCTCTCTGTAG |  | ≥ 1 |  |  |
| GGGAGAATGTTCTTGTAGCG |  | ≥ 1 |  |  |
| GGGTTACGTTACAGGGTTGA | ≥ 1 |  |  |  |
| GGTTAGGTTACTGATGTTAG |  |  | ≥ 1 |  |
| GTCATCTTCTCTTGAAAATA |  |  | 0.72 |  |
| GTGCAGGTTCTCATACACAT |  | 0.64 |  |  |
| TAAGAAAAGATTCTTGTGAG | 0.71 |  |  |  |
| TAATGGAATTCAATCCTGAT |  |  | 0.83 |  |
| TAGAGTCCAGCACTTGCTAA |  |  | 0.4 |  |
| TAGCAAAAGTTTTTAATCTA |  |  | 0.99 |  |
| TAGGACTTGTCCACCTTTTC |  |  | 0.58 |  |
| TAGGCATCAGGTTATAAAGA | 0.73 |  |  |  |
| TATGATGCTTCTTATTCTTA |  |  | 0.65 |  |
| TATTAACAACATACATACTT |  |  | ≥ 1 |  |
| TCAGAGTCGCAAACTTCTCC |  | ≥ 1 |  |  |
| TCAGCCGCATTCACCCTCGT |  | 0.54 |  |  |
| TCAGTCTTCGCTGTCTGAGG | 0.46 |  |  |  |
| TCATGCTCCCCGCAGTTGGT |  | 0.4 |  |  |
| TCCACCAGCATGGAACAATT |  |  | 0.71 |  |
| TCCTTGTTAACTGAGTATAT |  |  | 0.69 |  |
| TCTCATCAGGGCCTAGCAGC |  | 0.74 |  |  |
| TCTGCATGTGTCTCAGATGG |  |  | 0.42 |  |

| Sequence | remaining target (mRNA or protein) (fraction of control) (TERF1) | remaining target (mRNA or protein) (fraction of control) (PTPN6) | remaining target (mRNA or protein) (fraction of control) (XIAP) | other results |
| --- | --- | --- | --- | --- |
| TCTGCTCCTCAGTAGGGTCG | 0.68 |  |  |  |
| TCTTCTCTTGAAAATAGGAC |  |  | 0.96 |  |
| TGACTAGATGTCCACAAGGA |  |  | 0.61 |  |
| TGAGTCTGTCCATCGCGAAA |  | 0.63 |  |  |
| TGCCGGCGCTGCAGTGCACG |  | 0.85 |  |  |
| TGCCTACTATAGAGTTAGAT |  |  | 0.6 |  |
| TGCTCTTCAGTACTAATCTC |  |  | 0.58 |  |
| TGGTGCCGTCGCGGTCCTGC |  | 0.29 |  |  |
| TGTTAAAAGTCATCTTCTCT |  |  | 0.84 |  |
| TTAAAAGTCATCTTCTCTTG |  |  | ≥ 1 |  |
| TTAAACACTGGAACAAAAGT | ≥ 1 |  |  |  |
| TTAACTCTGGTAGCACAAAC | 0.59 |  |  |  |
| TTACAAACACAATCAGTCTT | 0.77 |  |  |  |
| TTACTCTGTACATTTATCAT | ≥ 1 |  |  |  |
| TTCAAAACTGTTAAAAGTCA |  |  | ≥ 1 |  |
| TTCAGTGATCCCAGGGCTTT |  | 0.75 |  |  |
| TTGAAAATAGGACTTGTCCA |  |  | 0.93 |  |
| TTGTACTGACCATTCTGGAT |  |  | 0.47 |  |
| TTTAGACCAGTTTCCCTCTC | 0.68 |  |  |  |
| TTTAGGCAGGACGCAGTGGC | 0.47 |  |  |  |
| TTTGTCCCATGGGTAATACT | 0.97 |  |  |  |
| TTTTACAAACACAATCAGTC | 0.77 |  |  |  |
